Tests used:
[1] = test system: HT-29 xenografts (human CRC tumor cell line); experiment: in vivo tumor xenograft experiment, subcutaneous HT-29 xenografts (Example A); conditions: nude mice, suboptimal doses, 28 days of treatment
Experimental: In order to analyse the anti-tumor effects of combining the inhibition of tumor angiogenesis by interfering with the VEGFR, FGFR and PDGFR signalling cascades with the established anti-proliferative treatment modality of capecitabine (Xeloda®) in a xenograft model of CRC the following in vivo experiment is performed. Nude mice carrying established subcutaneous HT-29 xenografts (human CRC tumor cell line) are randomized and treated with either nintedanib or capecitabine alone or with the combination of both drugs. After 28 days of treatment the tumors on the control treated mice reach the endpoint and are in average […] in volume. […] TGI = (1−(Xtreated,final−Xtreated,day1)/(Xcontrol,final−Xcontrol,day1))*100% [formula] where X = mean tumor weigh, final is day 28
The weight gain of the mice in the treatment groups in comparison to the weight of the control mice is reduced, but nevertheless well tolerated.

[2] = in adults; cited from earlier work
Calu-6 = experiment: in vivo anti-tumor efficacy, Calu-6 xenograft model; conditions: Lung (non-small-cell), Calu-6, 50mg/kg/d
FaDu = experiment: in vivo anti-tumor efficacy, FaDu xenograft model; conditions: Head and neck, 100mg/kg/d
PAC-120 = experiment: in vivo anti-tumor efficacy, PAC-120 xenograft model; conditions: Prostate (hormone-dependent), PAC-120, 100mg/kg/d
GS-9L = experiment: in vivo anti-tumor efficacy, GS-9L syngeneic rat tumor model; conditions: Glioblastoma, 50mg/kg/d
NCI-H460 = experiment: in vivo anti-tumor efficacy, NCI-H460 xenograft model; conditions: Lung (non-small-cell), NCI-H460, 25mg/kg/d
HT-29 = experiment: in vivo anti-tumor efficacy, HT-29 xenograft model; conditions: Colorectal, HT-29, 100mg/kg/d
HT-29 large tumors = experiment: in vivo anti-tumor efficacy, HT-29 large tumors xenograft model; conditions: Colorectal
Rip-Tag = experiment: in vivo anti-tumor efficacy, Rip-Tag murine transgenic pancreas model
Caki-1 = experiment: in vivo anti-tumor efficacy, Caki-1 xenograft model; conditions: Renal, Caki-1, 100mg/kg/d
SKOV3 = experiment: in vivo anti-tumor efficacy, SKOV3 xenograft model; conditions: Ovarian, SKOV3, 50mg/kg/d

Compound | TGI value [1] [%] | AUC [2] [µg·h/mL] | Cmax [2] [µg/mL] | bioavailability [2] | T/C (Calu-6) | T/C (FaDu) | T/C (PAC-120) | T/C (GS-9L) | T/C (NCI-H460) | T/C (HT-29) | Efficacy (HT-29 large tumors) | Efficacy (Rip-Tag) | T/C (Caki-1) | T/C (SKOV3)
CCCCCOC(=O)Nc1nc(=O)n([C@@H]2O[C@H](C)[C@@H](O)[C@H]2O)cc1F [capecitabine, 5'-deoxy-5-fluoro-N-[(pentyloxy)carbonyl]-cytidine] | 50 | 5.96 | 3.9 | ≈ 100% |  |  |  |  |  |  |  |  |  | 
COC(=O)c1ccc2c(c1)NC(=O)/C2=C(\Nc1ccc(N(C)C(=O)CN2CCN(C)CC2)cc1)c1ccccc1 [nintedanib, 3-Z-[1-(4-(N-((4-methyl-piperazin-1-yl)-methylcarbonyl)-N-methyl-amino)-anilino)-1-phenyl-methylene]-6-methoxycarbonyl-2-indolinone] | 35 |  |  |  | T/C 24% @ 50mg/kg/d | T/C 11% @ 100mg/kg/d | T/C 34% @ 100mg/kg/d | T/C 32% @ 50mg/kg/d | T/C 54% @ 25mg/kg/d | T/C 16% @ 100mg/kg/d | tumor volume reduction | interference with tumor formation | T/C 13% @ 100mg/kg/d | T/C 19% @ 50mg/kg/d
